Data as given in patent US6962920B2, “Pyrimidine derivatives and methods of making and using these derivatives” (Duquesne University of the Holy Ghost, priority 1992, dated 2005).

Experiments:
MDA-MB-231/ATCC = assay: NCI in vitro anti-cancer activity, Breast Cancer; format: cell-based; details: Table 29, Breast Cancer
SN12C = assay: NCI in vitro anti-cancer activity, Renal Cancer; format: cell-based; details: Table 29, Renal Cancer
MDA-MB-435 = assay: NCI in vitro anti-cancer activity, Breast Cancer; format: cell-based; details: Table 29, Breast Cancer
HS 578T = assay: NCI in vitro anti-cancer activity, Breast Cancer; format: cell-based; details: Table 29, Breast Cancer
Pc DHFR = target: T1, Pc DHFR (Pneumocystis carinii, UniProt P16184); assay: biochemical
T1 sequence (P16184 1-206): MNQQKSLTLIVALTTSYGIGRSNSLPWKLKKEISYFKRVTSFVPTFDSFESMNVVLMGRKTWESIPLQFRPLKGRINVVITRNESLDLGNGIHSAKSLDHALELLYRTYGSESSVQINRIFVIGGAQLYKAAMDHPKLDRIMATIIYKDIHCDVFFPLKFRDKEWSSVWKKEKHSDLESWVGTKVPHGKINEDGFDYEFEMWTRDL

IGROV1 = assay: NCI in vitro anti-cancer activity, Ovarian Cancer; format: cell-based; details: Table 29, Ovarian Cancer, IGROV1
HOP-92 = format: cell-based; details: Table 29, Non-Small Cell Lung Cancer, HOP-92
HCT-116 = assay: NCI in vitro anti-cancer activity, Colon Cancer; format: cell-based; details: Table 29, Colon Cancer
RXF 393 = assay: NCI in vitro anti-cancer activity, Renal Cancer; format: cell-based; details: Table 29, Renal Cancer, RXF 393
SK-MEL-2 = assay: NCI in vitro anti-cancer activity, Melanoma; format: cell-based; details: Table 29, Melanoma, SK-MEL-2
LOX IMVI = assay: NCI in vitro anti-cancer activity, Melanoma; format: cell-based; details: Table 29, Melanoma
SF-295 = assay: NCI in vitro anti-cancer activity, CNS Cancer; format: cell-based; details: Table 29, CNS Cancer, SF-295
OVCAR-4 = assay: NCI in vitro anti-cancer activity, Ovarian Cancer; format: cell-based; details: Table 29, Ovarian Cancer, OVCAR-4
BT-549 = assay: NCI in vitro anti-cancer activity, Breast Cancer; format: cell-based; details: Table 29, Breast Cancer, BT-549
U251 = assay: NCI in vitro anti-cancer activity, CNS Cancer; format: cell-based; details: Table 29, CNS Cancer, U251
MCF7 = assay: NCI in vitro anti-cancer activity, Breast Cancer; format: cell-based; details: Table 29, Breast Cancer, MCF7
DU-145 = assay: NCI in vitro anti-cancer activity, Prostate Cancer; format: cell-based; details: Table 29, Prostate Cancer, DU-145
Tg DHFR = target: T2, Tg DHFR (Toxoplasma gondii, UniProt Q07422); assay: biochemical; format: biochemical
T2 sequence (Q07422 1-610): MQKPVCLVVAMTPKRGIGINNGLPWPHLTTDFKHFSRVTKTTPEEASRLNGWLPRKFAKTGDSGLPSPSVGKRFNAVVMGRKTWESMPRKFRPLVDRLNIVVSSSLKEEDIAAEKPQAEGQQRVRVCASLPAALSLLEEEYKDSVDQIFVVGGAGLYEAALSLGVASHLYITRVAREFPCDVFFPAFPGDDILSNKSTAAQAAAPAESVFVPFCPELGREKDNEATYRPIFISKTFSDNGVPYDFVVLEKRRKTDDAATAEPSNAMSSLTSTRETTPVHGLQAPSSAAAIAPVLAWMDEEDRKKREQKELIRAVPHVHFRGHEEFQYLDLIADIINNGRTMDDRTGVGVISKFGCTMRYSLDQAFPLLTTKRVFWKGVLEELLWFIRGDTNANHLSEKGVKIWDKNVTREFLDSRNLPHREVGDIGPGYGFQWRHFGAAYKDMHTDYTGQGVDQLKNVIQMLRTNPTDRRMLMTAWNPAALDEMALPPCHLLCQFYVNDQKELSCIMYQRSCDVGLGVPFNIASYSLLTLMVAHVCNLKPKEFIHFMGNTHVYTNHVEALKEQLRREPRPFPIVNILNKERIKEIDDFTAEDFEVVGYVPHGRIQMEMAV
Procedure: The selectivity ratio is a measure of the selectivity of a compound for Pc DHFR or Tg DHFR and is expressed as the IC50 value of the DHFR from rate liver (RL) divided by the IC50 value of either the Pc DHFR or the Tg DHFR, depending on which organism the compounds are being tested against. For example, the selectivity ratio of a compound is calculated by the following formula: [formula]

SK-OV-3 = assay: NCI in vitro anti-cancer activity, Ovarian Cancer; format: cell-based; details: Table 29, Ovarian Cancer, SK-OV-3
OVCAR-8 = assay: NCI in vitro anti-cancer activity, Ovarian Cancer; format: cell-based; details: Table 29, Ovarian Cancer, OVCAR-8
NCI-H522 = format: cell-based; details: Table 29, Non-Small Cell Lung Cancer, NCI-H522
NCI-H23 = format: cell-based; details: Table 29, Non-Small Cell Lung Cancer, NCI-H23
HT29 = assay: NCI in vitro anti-cancer activity, Colon Cancer; format: cell-based; details: Table 29, Colon Cancer, HT29
COLO 205 = assay: NCI in vitro anti-cancer activity, Colon Cancer; format: cell-based; details: Table 29, Colon Cancer, COLO 205
A498 = assay: NCI in vitro anti-cancer activity, renal cancer
Source text: The compounds identified below were further tested for their in vitro anti-cancer activity by the National Cancer Institute.

PC-3 = assay: NCI in vitro anti-cancer activity, Prostate Cancer; format: cell-based; details: Table 29, Prostate Cancer, PC-3
ACHN = assay: NCI in vitro anti-cancer activity, Renal Cancer; format: cell-based; details: Table 29, Renal Cancer
MDA-N = assay: NCI in vitro anti-cancer activity, Breast Cancer; format: cell-based; details: Table 29, Breast Cancer
M14 = assay: NCI in vitro anti-cancer activity, Melanoma; format: cell-based; details: Table 29, Melanoma, M14
UACC-62 = assay: NCI in vitro anti-cancer activity, Melanoma; format: cell-based; details: Table 29, Melanoma, UACC-62
NCI-H226 = format: cell-based; details: Table 29, Non-Small Cell Lung Cancer, NCI-H226

SMILES | GI50 (MDA-MB-231/ATCC) | GI50 (SN12C) | GI50 (MDA-MB-435) | GI50 (HS 578T) | GI50 (IGROV1) | GI50 (HOP-92) | GI50 (HCT-116) | GI50 (RXF 393) | GI50 (SK-MEL-2) | GI50 (LOX IMVI) | GI50 (SF-295) | GI50 (OVCAR-4) | GI50 (BT-549) | GI50 (U251) | GI50 (MCF7) | GI50 (DU-145) | GI50 (SK-OV-3) | GI50 (OVCAR-8) | GI50 (NCI-H522) | GI50 (NCI-H23) | other results
COc1ccccc1CCc1cn(Cc2ccccc2)c2nc(N)nc(C)c12 [Compound 113-148] | 10.8 µM | 13.3 µM | 13 µM | 14.9 µM | 14.2 µM | 16.3 µM | 4.51 µM | 11.1 µM | 13.1 µM | 13.7 µM | 8.43 µM | 8.88 µM | 15.8 µM | 10.4 µM | 12.6 µM | 13.1 µM | 17.3 µM | 17.6 µM | 8.34 µM | 8.47 µM | % inhibition Pc DHFR (Pc DHFR; @ 85 μM): 45% @; % inhibition Tg DHFR (Tg DHFR; @ 85 μM): 27% @ 85 μM; GI50 (HT29): 4.77 µM; GI50 (COLO 205): 11.7 µM; GI50 (A498; Table 29, Renal Cancer, A498): 1940 nM; GI50 (PC-3): 9.47 µM; GI50 (ACHN): 7.99 µM; GI50 (MDA-N): 14.7 µM; GI50 (M14): 12 µM; GI50 (UACC-62): 12.3 µM; GI50 (NCI-H226): 12.4 µM
COc1cc(CCc2c[nH]c3nc(N)nc(C)c23)cc(OC)c1OC [Compound 113-154A] | 37.3 µM | 43.1 µM | 39.2 µM | 27 µM | 17.3 µM | 18.2 µM | 36.8 µM | 32.7 µM | 98.3 µM | 30 µM | 36.6 µM | 77.8 µM | 19.3 µM | 23.4 µM | 27.2 µM | 75.6 µM | 88.8 µM | 31.1 µM | 25 µM | 26.9 µM | Selectivity Ratio: RL DHFR/Pc DHFR (Pc DHFR; Table 26): 0.04; IC50 (Pc DHFR; Table 26, read-out: Inhibitory Concentrations (IC50) Pc DHFR): 55 µM; Selectivity Ratio: RL DHFR/Tg (Tg DHFR; Table 26): 0.23; IC50 (Tg DHFR; Table 26, read-out: Inhibitory Concentrations (IC50) Tg DHFR): 10.2 µM; GI50 (HT29): 10 µM; GI50 (COLO 205): 48.2 µM; GI50 (A498; A498 renal cancer cell line): selective; GI50 (A498; Table 29, Renal Cancer, A498): 845 nM; GI50 (PC-3): 22.2 µM; GI50 (ACHN): 35.7 µM; GI50 (MDA-N): 35.3 µM; GI50 (M14): 29.8 µM; GI50 (UACC-62): 19.6 µM; GI50 (NCI-H226): 23 µM
